Columns and labels:
wistar rats = test: Dexamethasone-induced skeletal muscle atrophy in rats (limb appearance, QRT-PCR of PGC-1α and atrogenes); format: in vivo, rat
Protocol: Following 15 d indicated treatment of rats, the skeletal muscle (pulled hind limb) were collected and RNA was extracted from them and QRT-PCR was performed in a Roche lightcycler 480 machine. Data represents mean+/−SEM from six animals done in triplicates. “a” statistical analysis between Vehicle and Dexamethasone-treated groups, “b”, statistical analysis between dex-treated and dex+ ULMA groups. P<0.05, as determined by student's t-test, n=6.
Blood was collected from cardiac punctures.
RNA was isolated from skeletal muscles using Trizol (according to manufacturers' protocol) and reverse transcribed as described above and either PGC-1α expression or muscle atrophy related genes (atrogenes) expression were examined.

C2C12 myotubes = test: Western blot of PGC-1α, PPAR and GLUT4 in C2C12 myotubes; format: cell-based, mouse; conditions: 10 nM, 24 or 48 hours
Protocol: B. ULMA induces protein levels of PGC-1α, PPARα and Glut4. C2C12 myotubes in 10 cm dish were treated with vehicle (DMSO) or 10 nM ULMA in DMSO for 24 or 48 h followed by western blotting with indicated antibodies. Data is representative of three independent experiments showing identical pattern.
Adiponectin enhances transcription of genes regulating fatty acid transport, fatty acid-oxidation and mitochondrial uncoupling proteins in skeletal muscle and myotubes (T. Kadowaki, T. Yamauchi, N. Kubota, K. Hara, K. Ueki, K. Tobe. J Clin Invest. 116(7): 1784-92. 2006; S. Dridi, M. Taouis. Journal of Nutritional Biochemistry 20 (2009): 831-839. 2009; M. Iwabu, T. Yamauchi, M. Okada-Iwabu, K. Sato, T. Nakagawa, M. Funata, M. Yamaguchi, S. Namiki, R. Nakayama, M. Tabata, H. Ogata, N. Kubota, I. Takamoto, Y. K. Hayashi, N. Yamauchi, H. Waki, M. Fukayama, I. Nishino, K. Tokuyama, K. Ueki, Y. Oike, S. Ishii, K. Hirose, T. Shimizu, K. Touhara, T. Kadowaki. Nature; 464(7293):1313-1319. 2010). The ability of ULMA to influence expression of these genes were checked in c2c12 myotubes. C2C12 myotubes in 6 well plates were treated with 10 nM ULMA or vehicle (DMSO) for 12 hours or 24 hours. Following treatment, the cells were washed with ice-cold PBS and RNA was extracted using Trizol (Ambion) according to manufacturer's instructions. The RNAs were quantitated using a spectrophotometer (nanophotometer; Implen GMBH) and 1 μg RNA was used to prepare cDNA using a cDNA synthesis kit (Applied Biosystems). cDNAs were then used for quantitative real-time PCR for indicated genes (FIG. 3A) using Veriquest SYBR green QRT-PCR mastermix (US Biologicals) and a Roche lightcycler 480 thermal cycler (Roche Diagnostics). Beta-actin was used as normalizing control. The relative mRNA level was quantitated using ddCT method. […] Adiponectin is also known to induce muscle and adipose glucose transporter 4 (GLUT4) expressions; and the ability of ULMA to induce the expression of GLUT4, PPAR and PGC-1α was investigated by western blotting. […]

Human SVF = test: Brown adipose marker protein level in human stromal vascular fractions; format: cell-based; conditions: differentiated in presence of ULMA, 21 d
Protocol: C. Cells from identical set of experiments as described in FIGS. 5A and 5B or human SVFs prepared by collagenase digestions were analyzed by western blot analysis for determination of UCP-1, UCP-2 and PGC-1α protein level. Beta-actin was used as a loading control. Data is representative of three independent experiments.
Mouse stromal vascular fractions (SVF) from epididymal fat pad were prepared using standard collagenase digestion method. Human SVF was prepared from human lipoaspirates (subcutaneous) collected from an obese individual undergoing liposuction following approval of Institutional Ethical Committee. To isolate SVFs, epidymal fat pads tissue or lipoaspirates were washed 6× in PBS and then were dispensed in tissue culture flasks. 0.2% sterile collagenase (Sigma) solution containing 1× antibiotic-antimycotic (Invitrogen) was then added to the adipose and the flasks were shaken vigorously for 10 seconds. The flasks were then incubated at 37° C. on a shaker for 2 hours with manual shaking of the flasks for 5-10 seconds every 15 min. After completion of digestion, FBS was added to the final concentration of 10% to the flasks, mixed and the collagenase digested tissue were then dispensed in 50 ml conical tubes and were centrifuged at 400 g for 10 min at room temp. […]

In the case of `O=C1c2c(cc(O)c([C@@H]3O[C@H](CO)[C@@H](O)[C@H](O)[C@H]3O)c2O)O[C@@H](c2ccc(O)c(O)c2)[C@@H]1O` [ULMA, (2S,3S)-(+)-3′,4′,5,7-tetrahydroxydihydroflavonol-6-C-β-D-glucopyranoside], the “Dex-caused reduction of skeletal muscle PGC-1α level” value (wistar rats; Dex + ULMA) was “protected”, the “protection against induction of atrogenes by dexamethasone” value (wistar rats; Dex + ULMA) was “completely protected” and the “skeletal muscle PGC-1α expression” value (wistar rats; ULMA alone) was “robust induction”. For the same compound, the Dex-induced limb abnormality (wistar rats; ULMA co-treatment with Dex) was “prevented it”, the GLUT4 protein level (C2C12 myotubes) was “induced protein levels” and the PGC-1α protein level (C2C12 myotubes) was “induced protein levels”. The PPAR protein level (C2C12 myotubes) was “induced protein levels”, the PGC-1α protein level (Human SVF) was “elevated” and the UCPs protein level (Human SVF) was “elevated”.

From US20160193240A1, “Ulmoside-A: Useful For Prevention Or Cure Of Metabolic Diseases” (COUNCIL OF SCIENTIFIC & INDUSTRIAL RESEARCH, priority 2013, published 2016)
